Reference: ChEMBL document CHEMBL4011632, “Design, Synthesis, and Evaluation of Thiazolidine-2,4-dione Derivatives as a Novel Class of Glutaminase Inhibitors” (J Med Chem, 2017)

System: Mus musculus
Assay: Toxicity in BALB/CAnN.Cg-Foxn1nu/CrlNarl mouse xenografted with human Aspc-1 cells assessed as loss in body weight at 25 mg/kg, ip once daily administered for 5 days followed by 2 days without dosing for 43 days relative to control
Format: organism-based, BALB/C
Details: in vivo

Compound `Cc1cc(/C=C2\SC(=O)NC2=O)c(C)n1-c1ccc(-c2ccc(/C=C3\SC(=O)NC3=O)cc2)cc1` has an Activity greater than 10%.
